Legend:
Format in all cases: cell-based
KRAS G12D = target: T1, KRAS G12D (Homo sapiens, UniProt P01116, G12D); assay: KRAS degradation activity by Cell ELISA in AsPC-1 cells (Test Example 1); conditions: for Dmax: ASPC1, overnight treatment, read-out: Dmax (degradation rate at the concentration showing highest degradation); for Dmax / DC50: Cell ELISA; for degradation rate at the highest concentration evaluated (printed in DC50 column): at 10 μM; for DC50: overnight treatment, read-out: DC50 (50% degradation concentration of KRAS)
T1 construct: host or cells: AsPC-1 (human pancreatic cancer line)
Experimental: The KRAS degradation activity of test compounds was evaluated by measuring the expression levels of KRAS G12D by Cell ELISA.
AsPC-1 cells were seeded at 20 μL per well on 384-well plates (from Greiner bio-one) to give 2.0×10^4 cells per well. As for the cell culture conditions, RPMI 1640 (from Sigma-Aldrich) medium containing 10% fetal bovine serum (from Cytiva) was used in the presence of 5% CO2 at 37° C.
The next day, the test compounds (10 points having final concentrations in the range of 10 μM to 0.3 nM) and DMSO (from FUJIFILM Wako Pure Chemical Corporation), which was the solvent for the test compounds, as a negative control were diluted 500-fold with a fresh medium and were added at 20 μL per well. The cells were cultured overnight. The next day, the culture supernatant was removed, and 4% paraformaldehyde phosphate buffer (from FUJIFILM Wako Pure Chemical Corporation) was added at 20 μL per well. The plates were allowed to stand for 30 minutes at room temperature to thus immobilize the cells. Then, the supernatant was removed, and 0.1% Triton X-100 (from Amersham Biosciences)-containing Phosphate buffered saline (PBS; from FUJIFILM Wako Pure Chemical Corporation) was added at 20 μL per well. After allowing to stand for 10 minutes at room temperature, the supernatant was removed. PBS was added at 25 μL per well, and the supernatant was removed to thus wash each well. The washing was performed twice in total. Next, the supernatant was removed, and 0.5% sodium dodecyl sulfate (SDS; from Invitrogen)-containing PBS was added at 20 μL per well. After allowing to stand at room temperature for 10 minutes, the supernatant was removed by a centrifugal operation (using a centrifugal dehydrator machine, the supernatant was removed by the same method hereinafter). PBS was added at 25 μL per well, and the supernatant was removed to thus wash each well. The washing was performed twice in total. The supernatant was removed, and blocking solution (Intercept Blocking Buffer; from Li—COR Biosciences) was added at 20 μL per well. After allowing to stand for 30 minutes at room temperature, the supernatant was removed, and a solution obtained by diluting anti-β-actin antibody (Anti-beta Actin antibody [mAbcam 8226]-Loading Control; from abcam) 1,000-fold with blocking solution and a solution obtained by diluting anti-Ras (G12D Mutant Specific) antibody (Ras (G12D Mutant Specific) (D8H7) Rabbit mAb #14429; from Cell Signaling Technology) and anti-β-actin antibody (from abcam) 1,000-fold with blocking solution were respectively added to positive control wells and the other wells at 15 μL per well as a primary antibody. The plates were allowed to stand overnight at 4° C.
The next day, the supernatant was removed. PBS was added at 25 μL per well, and the supernatant was removed to thus wash each well. The washing was performed twice in total. The supernatant was removed, and a solution obtained by diluting Donkey anti-Mouse IgG H&L (IRDye 680RD) (from Li—COR Biosciences) and Goat anti-Rabbit IgG H&L (IRDye 800CW) (from Li—COR Biosciences) 1,000-fold with blocking solution was added at 15 μL per well as a secondary antibody. A solution obtained by diluting Donkey anti-Mouse IgG H&L (IRDye 680RD) (from Li—COR Biosciences) 1,000-fold with blocking solution was added to a positive control well as a secondary antibody. After allowing to stand for 1 hour at room temperature, the supernatant was removed. PBS was added at […], and the supernatant was removed to thus wash each well. The washing was performed twice in total. After removing the supernatant, the plates were dried with air at room temperature for 2 hours or more, and the 700 nm and 800 nm fluorescent signals were measured with Aerius (from Li—COR Biosciences). […]

[1] = test system: human G12D mutant KRAS-positive pancreatic cancer line AsPC-1; assay: Non-anchorage-dependent cell growth inhibitory effect, spheroid 3D culture (Test Example 3); conditions: ASPC1, 144 h, AsPC-1 spheroid 3D culture, 6 days; for IC50: CellTiter Glo 2.0, read-out: IC50 (non-anchorage-dependent cell growth inhibition)
Experimental: The non-anchorage-dependent cell growth inhibitory effect of test compounds was evaluated by spheroid 3D cell culture.
AsPC-1 cells were seeded on low-cell-adhesive round bottom 384-well plates (PrimeSurface: from Sumitomo Bakelite) at 20 μL (or […])/well to give 5×10^2 cells per well. As for the cell culture conditions, RPMI 1640 medium containing 10% fetal bovine serum was used in the presence of 5% CO2 at 37° C.
The next day, the test compounds (10 points or 6 points having final concentrations in the range of 10 μM to 0.3 nM) and DMSO, which was the solvent for the test compounds, as a negative control were diluted 500-fold (or 100-fold) with a fresh medium and were added at 20 μL (or […]) per well. After culturing in the presence of 5% C02 at 37° C. for 6 days, CellTiter Glo 2.0 (from Promega) was added at 20 μL per well. After stirring with a plate mixer (from FINEPCR) at normal temperature for 1 hour, the luminescent signals were measured with ARVO X3 (from PerkinElmer).
(§1) With the signaling value in treatment with DMSO taken as 100% and with the signaling value in the medium alone without cells taken as 0%, the 50% inhibitory concentration values (IC50) were calculated by Sigmoid-Emax nonlinear regression analysis. The calculated 50% inhibition represents the inhibition at the highest concentration evaluated (10 μM) for a compound that exceeds the concentration in the evaluation range.
(§2) In the tables presented below, Ex represents Example No. The IC50 of Ex. 13, Ex. 15, and Ex. 16 were calculated using the molecular weights as tetrahydrochloride, and the IC50 of Ex. 14 was calculated using the molecular weight as trihydrochloride.

[2] = test system: phosphorylation of ERK (Thr202/Tyr204); assay: ERK phosphorylation inhibitory effect by Cell ELISA in AsPC-1 cells (Test Example 2); conditions: Homo sapiens; for IC50: ASPC1, overnight treatment, Cell ELISA, read-out: IC50 (ERK phosphorylation inhibition)
Experimental: The ERK phosphorylation inhibitory effect of test compounds was evaluated by measuring phosphorylation of threonine 202 (Thr202) and tyrosine 204 (Tyr204) of ERK located downstream of the KRAS signal by Cell ELISA.
AsPC-1 cells were seeded on 384-well plates at 20 µL/well to give 2.0×10^4 cells per well. As for the cell culture conditions, RPMI 1640 medium containing 10% fetal bovine serum was used in the presence of 5% CO2 at 37° C.
The next day, the test compounds (10 points having final concentrations in the range of 10 μM to 0.3 nM), trametinib (MEK inhibitor) of a final concentration of […] as positive control and DMSO, which was the solvent for the test compounds, as negative control were diluted 500-fold with a fresh medium and were added at 20 μL per well. The cells were cultured overnight. After culturing, 30% glyoxal solution (40% glyoxal [from Nacalai Tesque]was diluted with PBS) was quickly added at 30 μL per well, and the plates were allowed to stand for 120 minutes at room temperature to thus immobilize the cells. Then, the plates were centrifuged to remove the supernatant (using a centrifugal dehydrator machine, the supernatant was removed by the same method hereinafter), and 0.10% Triton X-100-containing PBS was added at 20 μL per well. After allowing to stand for 10 minutes at room temperature, the supernatant was removed, and the same operation was further repeated. Next, 0.5% SDS-containing PBS was added at 20 μL per well, and after allowing to stand at room temperature for 30 minutes, the supernatant was removed. Subsequently, blocking solution (Intercept Blocking Buffer) was added at 20 μL per well, and the plates were allowed to stand for 1 hour at room temperature. The supernatant was removed, and an ERK (Thr202/Tyr204) phosphorylation antibody (Phospho-p44/42 MAPK (Erk 1/2) (Thr202/Tyr204) (D13.14.4E) XP Rabbit mAb; from Cell Signaling Technology) diluted 2,500-fold with blocking solution was added at 15 μL per well as a primary antibody. The plates were allowed to stand at 4° C. overnight.
The next day, the supernatant was removed. 0.05% Tween-20 (from Thermo Fisher Scientific)-containing PBS was added at 50 μL per well, and the supernatant was removed to thus wash each well. The washing was performed three times in total. After washing, Goat anti-Rabbit IgG H&L (IRDye 800CW) diluted 1,000-fold with blocking solution was added at 15 μL per well as a secondary antibody, and the plates were allowed to stand for 1 hour at room temperature. The supernatant was removed, and each well was washed three times with 0.05% Tween-20-containing PBS in the same manner as after the primary antibody reaction. After removing the supernatant, the plates were dried with air at room temperature for 3 hours or more, and the 800-nm fluorescent signals were measured with Aerius.
as §1, with “value at the time of addition of” for “value in treatment with”, “value at” for “value in”, “the time of addition of […] trametinib” for “the medium alone without cells”
as §2

T1 sequence (P01116 1-188 isoform P01116-2 G12D): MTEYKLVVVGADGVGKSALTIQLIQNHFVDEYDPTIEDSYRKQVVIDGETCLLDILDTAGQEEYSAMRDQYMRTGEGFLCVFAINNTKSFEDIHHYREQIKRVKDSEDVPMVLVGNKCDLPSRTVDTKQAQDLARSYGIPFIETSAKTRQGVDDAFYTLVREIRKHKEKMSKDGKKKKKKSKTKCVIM

| SMILES | Dmax (KRAS G12D) | degradation rate at the highest concentration evaluated (printed in DC50 column) (KRAS G12D) | IC50 [1] | IC50 [2] | DC50 (KRAS G12D) | inhibition at 10 µM ([1]; at 10 μM, read-out: cell growth inhibition at the highest concentration evaluated) | inhibition at 10 µM ([2]; ASPC1, at 10 μM, read-out: ERK phosphorylation inhibition at the highest concentration evaluated) |
| --- | --- | --- | --- | --- | --- | --- | --- |
| Cc1c(F)cc2[nH]ncc2c1-c1c(C2CC2)cc2c(N3C[C@@H]4C[C@H]3CN4)nc(OC3CCOCC3)nc2c1OCc1ccc(C(=O)N2CCN(Cc3ccc4c(c3)c(N3CCC(=O)NC3=O)nn4C)C[C@@H]2C)cc1 (atropisomer, axis not shown) [Example 27] | 25% | 25% at 10 μM | 1890 nM | 2770 nM |  |  |  |
| CO[C@@H](C)COc1nc(O[C@@H]2CCNC2)c2cc(C3CC3)c(-c3c(C)c(F)cc4[nH]ncc34)c(OCc3ccc(C(=O)N4CCN(Cc5ccc6c(c5)n(C)c(=O)n6C5CCC(=O)NC5=O)C[C@@H]4C)cc3)c2n1 (stereo partly drawn) [Example 39] | 83% |  | 52 nM | 30 nM | 22 nM |  |  |
| Cc1c(F)cc2[nH]ncc2c1-c1c(C2CC2)cc2c(N3C[C@@H]4C[C@H]3CN4)nc(OC3CCOCC3)nc2c1OCc1ccc(C(=O)N2CCN(Cc3ccc4c(n3)n(C)c(=O)n4C3CCC(=O)NC3=O)CC2)cc1 (stereo partly drawn) [Example 11] | 84% |  | 142 nM | 59 nM | 58 nM |  |  |
| Cc1c(F)cc2[nH]ncc2c1-c1c(C2CC2)cc2c(O[C@H]3CCNC3)cc(OC[C@H]3CCCO3)nc2c1OCc1ccc(C(=O)N2CCN(Cc3ccc4c(c3)n(C)c(=O)n4C3CCC(=O)NC3=O)C[C@@H]2C)cc1 (atropisomer, axis not shown) [Example 32] | 78% |  | 60 nM | 69 nM | 46 nM |  |  |
| Cc1c(F)cc2[nH]ncc2c1-c1c(C2CC2)cc2c(N3C[C@@H]4C[C@H]3CN4)nc(OC3CCOCC3)nc2c1OCc1ccc(C(=O)N2CCN(Cc3ccc4c(c3)n(C)c(=O)n4C3CCC(=O)NC3=O)C[C@H]2C)cc1 (stereo partly drawn) [Example 9] | 65% |  | 90 nM | 69 nM | 55 nM |  |  |
| Cc1c(F)cc2[nH]ncc2c1-c1c(C2CC2)cc2c(N3C[C@@H]4C[C@H]3CN4)nc(OC[C@@H]3CCCO3)nc2c1OCc1ccc(C(=O)N2CCN(Cc3ccc4c(c3)n(C)c(=O)n4C3CCC(=O)NC3=O)C[C@@H]2C)cc1 (stereo partly drawn) [Example 40] | 88% |  | 46 nM | 30 nM | 23 nM |  |  |
| Cc1c(F)cc2[nH]ncc2c1-c1c(C2CC2)cc2c(N3C[C@@H]4C[C@H]3CN4)nc(OC3CCOCC3)nc2c1OCc1ccc(C(=O)N2C3CCC2CN(Cc2ccc4c(c2)C(=O)N(C2CCC(=O)NC2=O)C4=O)C3)cc1 (stereo partly drawn) [Example 5, 5-[(8-{4-[({(7M)-6-cyclopropyl-4-[(1S,4S)-2,5-diazabicyclo[2.2.1]heptan-2-yl]-7-(6-fluoro-5-methyl-1H-indazol-4-yl)-2-[(oxan-4-yl)oxy]quinazolin-8-yl}oxy)methyl]benzoyl}-3,8-diazabicyclo[3.2.1]octan-3-yl)methyl]-2-(2,6-dioxopiperidin-3-yl)-1H-isoindole-1,3(2H)-dione] | 84% |  | 490 nM | 329 nM | 308 nM |  |  |
| Cc1c(F)cc2[nH]ncc2c1-c1c(C2CC2)cc2c(N3C[C@@H]4C[C@H]3CN4)nc(OC3CCOCC3)nc2c1OCc1ccc(C(=O)N2C[C@H]3C[C@@H]2CN3Cc2ccc3c(c2)C(=O)N(C2CCC(=O)NC2=O)C3=O)cc1 (stereo partly drawn) [Example 4] | 40% | 40% at 10 μM |  |  |  | 22% | 33% |
| Cc1c(F)cc2[nH]ncc2c1-c1c(C2CC2)cc2c(N3C[C@@H]4C[C@H]3CN4)nc(OC3CCOCC3)nc2c1OCc1ccc(C(=O)N2CCN(Cc3ccc4c(N5CCC(=O)NC5=O)n(C)nc4c3)C[C@@H]2C)cc1 (atropisomer, axis not shown) [Example 22] | 84% |  | 128 nM | 283 nM | 114 nM |  |  |
